These compounds were tested on A549-NF-κB-SEAP reporter cells (assay: Inhibition of NF-κB-induced inflammation ([…] NINA Instant Assay, SEAP reporter)). Settings: compounds of formula (I); TNF-α stimulated reporter cells; test concentration not given.
Type: cell-based
Source text: For the determination of anti-inflammatory activity of the compounds the […]® NINA Instant Assay from Cell Culture Service GmBH was used. This assay is based on recombinant A549-NF-κB-SEAP reporter cells preseeded in 96-well flat bottom plates. As the transfected reportergen for SEAP (secreted embryonic alkaline phosphatase) is under transcriptional control of a NF-κB-responsive element, the expression of this reporter is activated upon stimulation with TNF-α. SEAP secretion into the culture supernatant can be detected by the chemiluminescent substrate CSPD®. Test compounds that inhibit the NF-κB activation show reduced SEAP activity and reduced luminescent readout.
Following 18 h of reactivation at 37° C., 5% CO2 and 90% relative humidity, the cells were incubated with 0.01 up to 100 μM of test compound for 4.5 h before stimulation with 2 ng/ml TNF-α. After stimulation with TNF-α for 22 h endogenous phosphatases were inactivated and CSPD® substrate was supplied for 40 min. SEAP activity then was quantified by measuring luminescence as relative light units (RLU) using a Tecan Ultra reader. Each data point was recorded in quadruplicates and EC50 values were calculated via fitting function and the Microsoft Excel Solver.
With `COc1ccccc1N1CCC(c2nc(C(=O)N3CCN(c4cccc(C(F)(F)F)c4)CC3)cs2)CC1` [compound 158] the “Biological activity (NF-κB inflammation assay, inhibition)” value was “+ (“+” stands for 50-80% inhibition)”. With `COc1ccc(N2CCC(c3nc(C(=O)N4CCN(c5cccc(C(F)(F)F)c5)CC4)cs3)CC2)cc1OC` [compound 159] the “Biological activity (NF-κB inflammation assay, inhibition)” value was “+ (“+” stands for 50-80% inhibition)”. `COc1cc(N2CCC(c3nc(C(=O)N4CCN(c5cccc(C(F)(F)F)c5)CC4)cs3)CC2)nc(OC)n1` [compound 164] was tested, and the “Biological activity (NF-κB inflammation assay, inhibition)” value was “++ (“++” means 80-90%)”. `O=C(c1csc(C2CCN(Cc3ccccc3Br)CC2)n1)N1CCN(c2cccc(C(F)(F)F)c2)CC1` [compound 165] was tested, and the “Biological activity (NF-κB inflammation assay, inhibition)” value was “+ (“+” stands for 50-80% inhibition)”. In the case of `N#Cc1ccc(CN2CCC(c3nc(C(=O)N4CCN(c5cccc(C(F)(F)F)c5)CC4)cs3)CC2)cc1` [compound 166], the “Biological activity (NF-κB inflammation assay, inhibition)” value is reported as “+ (“+” stands for 50-80% inhibition)”. In the case of `O=C(c1csc(C2CCN(Cc3ccc(-c4ccccc4)cc3)CC2)n1)N1CCN(c2cccc(C(F)(F)F)c2)CC1` [compound 167], the “Biological activity (NF-κB inflammation assay, inhibition)” value is reported as “+ (“+” stands for 50-80% inhibition)”. `O=C(c1csc(C2CCN(Cc3c(F)cccc3F)CC2)n1)N1CCN(c2cccc(C(F)(F)F)c2)CC1` [compound 168] was tested, and the “Biological activity (NF-κB inflammation assay, inhibition)” value was “+ (“+” stands for 50-80% inhibition)”. With `O=C(c1csc(C2CCN(Cc3ccc(C(F)(F)F)cc3)CC2)n1)N1CCN(c2cccc(C(F)(F)F)c2)CC1` [compound 169] the “Biological activity (NF-κB inflammation assay, inhibition)” value was “+ (“+” stands for 50-80% inhibition)”. `O=C(c1csc(C2CCN(Cc3ccc(F)cc3)CC2)n1)N1CCN(c2cccc(C(F)(F)F)c2)CC1` [compound 170] was tested, and the “Biological activity (NF-κB inflammation assay, inhibition)” value was “+ (“+” stands for 50-80% inhibition)”. `O=C(c1csc(C2CCN(Cc3ccc(F)cc3Cl)CC2)n1)N1CCN(c2cccc(C(F)(F)F)c2)CC1` [compound 171] was tested, and the “Biological activity (NF-κB inflammation assay, inhibition)” value was “+ (“+” stands for 50-80% inhibition)”. For `O=C(c1csc(C2CCN(Cc3ccc(OC(F)(F)F)cc3)CC2)n1)N1CCN(c2cccc(C(F)(F)F)c2)CC1` [compound 172], the “Biological activity (NF-κB inflammation assay, inhibition)” value was “+ (“+” stands for 50-80% inhibition)”. For `COc1cccc(CN2CCC(c3nc(C(=O)N4CCN(c5cccc(C(F)(F)F)c5)CC4)cs3)CC2)c1` [compound 173], the “Biological activity (NF-κB inflammation assay, inhibition)” value was “+ (“+” stands for 50-80% inhibition)”. For `O=C(c1csc(C2CCN(Cc3ccc(Br)cc3)CC2)n1)N1CCN(c2cccc(C(F)(F)F)c2)CC1` [compound 174], the “Biological activity (NF-κB inflammation assay, inhibition)” value was “+ (“+” stands for 50-80% inhibition)”. In the case of `O=C(c1csc(C2CCN(Cc3cc(C(F)(F)F)cc(C(F)(F)F)c3)CC2)n1)N1CCN(c2cccc(C(F)(F)F)c2)CC1` [compound 175], the “Biological activity (NF-κB inflammation assay, inhibition)” value is reported as “+ (“+” stands for 50-80% inhibition)”. With `COc1nc(OC)nc(N2CCC(c3nc(C(=O)N4CCN(c5cccc(C(F)(F)F)c5)CC4)cs3)CC2)n1` [compound 176] the “Biological activity (NF-κB inflammation assay, inhibition)” value was “+ (“+” stands for 50-80% inhibition)”. For `O=C(c1csc(C2CCN(Cc3ccccc3)CC2)n1)N1CCN(c2cccc(C(F)(F)F)c2)CC1` [compound 177], the “Biological activity (NF-κB inflammation assay, inhibition)” value was “+ (“+” stands for 50-80% inhibition)”. `COc1cccc(N2CCC(c3nc(C(=O)N4CCN(c5cccc(C(F)(F)F)c5)CC4)cs3)CC2)c1` [compound 178] was tested, and the “Biological activity (NF-κB inflammation assay, inhibition)” value was “+ (“+” stands for 50-80% inhibition)”. For `O=C(Cc1ccc(F)cc1)N1CCC(c2nc(C(=O)N3CCN(c4ccccc4)CC3)cs2)CC1` [compound 180], the “Biological activity (NF-κB inflammation assay, inhibition)” value was “+ (“+” stands for 50-80% inhibition)”. For `O=C(Cc1ccc(F)cc1)N1CCC(c2nc(C(=O)N3CCC(n4nnc5cc(C(F)(F)F)ccc54)CC3)cs2)CC1` [compound 181], the “Biological activity (NF-κB inflammation assay, inhibition)” value was “+ (“+” stands for 50-80% inhibition)”. `O=C(Cc1ccc(F)cc1)N1CCC(c2nc(C(=O)N3CCC(n4nnc5ccccc54)CC3)cs2)CC1` [compound 182] was tested, and the “Biological activity (NF-κB inflammation assay, inhibition)” value was “+ (“+” stands for 50-80% inhibition)”. In the case of `O=C(O)c1cccnc1C(=O)N1CCC(c2nc(C(=O)N3CCN(c4cccc(C(F)(F)F)c4)CC3)cs2)CC1` [compound 183], the “Biological activity (NF-κB inflammation assay, inhibition)” value is reported as “+ (“+” stands for 50-80% inhibition)”. With `O=C(O)c1ccc(C(=O)O)c(C(=O)N2CCC(c3nc(C(=O)N4CCN(c5cccc(C(F)(F)F)c5)CC4)cs3)CC2)c1` [compound 184] the “Biological activity (NF-κB inflammation assay, inhibition)” value was “+ (“+” stands for 50-80% inhibition)”. `O=C(O)c1ccccc1C(=O)N1CCC(c2nc(C(=O)N3CCN(c4cccc(C(F)(F)F)c4)CC3)cs2)CC1` [compound 185] was tested, and the “Biological activity (NF-κB inflammation assay, inhibition)” value was “+ (“+” stands for 50-80% inhibition)”. With `O=C(O)c1cccc(O)c1C(=O)N1CCC(c2nc(C(=O)N3CCN(c4cccc(C(F)(F)F)c4)CC3)cs2)CC1` [compound 186] the “Biological activity (NF-κB inflammation assay, inhibition)” value was “+ (“+” stands for 50-80% inhibition)”. In the case of `O=C(O)c1cc(Cl)c(Cl)cc1C(=O)N1CCC(c2nc(C(=O)N3CCN(c4cccc(C(F)(F)F)c4)CC3)cs2)CC1` [compound 187], the “Biological activity (NF-κB inflammation assay, inhibition)” value is reported as “+ (“+” stands for 50-80% inhibition)”. In the case of `O=C(O)C1=C(C(=O)N2CCC(c3nc(C(=O)N4CCN(c5cccc(C(F)(F)F)c5)CC4)cs3)CC2)CCC1` [compound 188], the “Biological activity (NF-κB inflammation assay, inhibition)” value is reported as “+ (“+” stands for 50-80% inhibition)”. `O=C(O)C1CCCCC1C(=O)N1CCC(c2nc(C(=O)N3CCN(c4cccc(C(F)(F)F)c4)CC3)cs2)CC1` (stereo not drawn) [compound 189] was tested, and the “Biological activity (NF-κB inflammation assay, inhibition)” value was “+ (“+” stands for 50-80% inhibition)”. With `O=C(O)C1=C(C(=O)N2CCC(c3nc(C(=O)N4CCN(c5cccc(C(F)(F)F)c5)CC4)cs3)CC2)CCCC1` [compound 190] the “Biological activity (NF-κB inflammation assay, inhibition)” value was “+ (“+” stands for 50-80% inhibition)”. With `O=C(O)C=CC(=O)N1CCC(c2nc(C(=O)N3CCN(c4cccc(C(F)(F)F)c4)CC3)cs2)CC1` [compound 191] the “Biological activity (NF-κB inflammation assay, inhibition)” value was “+ (“+” stands for 50-80% inhibition)”. In the case of `Cc1noc(C)c1S(=O)(=O)N1CCC(c2nc(C(=O)N3CCN(c4cccc(C(F)(F)F)c4)CC3)cs2)CC1` [compound 192], the “Biological activity (NF-κB inflammation assay, inhibition)” value is reported as “+ (“+” stands for 50-80% inhibition)”. `O=C(c1csc(C2CCN(S(=O)(=O)c3c(F)c(F)c(F)c(F)c3F)CC2)n1)N1CCN(c2cccc(C(F)(F)F)c2)CC1` [compound 193] was tested, and the “Biological activity (NF-κB inflammation assay, inhibition)” value was “+ (“+” stands for 50-80% inhibition)”. `O=C(c1csc(C2CCN(S(=O)(=O)c3cccs3)CC2)n1)N1CCN(c2cccc(C(F)(F)F)c2)CC1` [compound 194] was tested, and the “Biological activity (NF-κB inflammation assay, inhibition)” value was “+ (“+” stands for 50-80% inhibition)”. For `O=C(c1csc(C2CCN(S(=O)(=O)c3ccc(F)cc3Cl)CC2)n1)N1CCN(c2cccc(C(F)(F)F)c2)CC1` [compound 195], the “Biological activity (NF-κB inflammation assay, inhibition)” value was “+ (“+” stands for 50-80% inhibition)”.

Same assay, conditions: compounds of formula (Ic); TNF-α stimulated reporter cells; test concentration not given
For `O=C(Cc1ccc(F)cc1)N1CCC(c2nc(C(=O)N3CCc4cc(O)c(O)cc4C3)cs2)CC1` [compound 160], the “Biological activity (NF-κB inflammation assay, inhibition)” value was “+ (“+” stands for 50-80% inhibition)”. `COc1cc2c(cc1OC)CN(C(=O)c1csc(C3CCN(C(=O)Cc4ccc(F)cc4)CC3)n1)CC2` [compound 161] was tested, and the “Biological activity (NF-κB inflammation assay, inhibition)” value was “+ (“+” stands for 50-80% inhibition)”. `O=C(Cc1ccc(F)cc1)N1CCC(c2nc(C(=O)N3CCc4ccccc4C3)cs2)CC1` [compound 163] was tested, and the “Biological activity (NF-κB inflammation assay, inhibition)” value was “+ (“+” stands for 50-80% inhibition)”.

Source: US7601745B2, “Heterocyclic NF-kB inhibitors” (4SC AG, priority 2004, dated 2009)
